The subject of data set [1] is MDCK-MDR1 cell monolayers. Briefly: Bidirectional transport across MDCK-MDR1 cell monolayers. The class given is in vitro ADME, canine.
Data set [2] relates to P-gp (MDR1). The description is as above. The class given is in vitro ADME, canine. Conditions: dog.
Data set [3] can be described thus: PAMPA permeability at different pH. In general terms: In PAMPA a lipid-coated filter parts donor from acceptor wells.
Data set [4] relates to P-gp. Put plainly: Bidirectional transport across Caco-2 cell monolayers. Conditions: human.
For data set [5], the system named is hemodynamic effects. The conditions noted are these: healthy subjects ref 8; cited from earlier work.
In data set [6] the test system is rat jejunum.
In data set [7] the test system is beta-blocking activity. Conditions: animal studies ref 7; cited from earlier work.
For data set [8], the system named is Caco-2 cell monolayers. Briefly: Bidirectional transport across Caco-2 cell monolayers. Conditions: 50 µM. A general note: Passage across Caco-2 layers is used to estimate intestinal permeability.
Data set [9] has as its system rat jejunum. Put plainly: Transport study in rat jejunum Ussing chamber. Conditions: after 90 min, leakage indicator.
The conditions of data set [10]: cited from earlier work.
Data set [11] concerns human jejunum. The conditions noted are these: single-pass perfusion, healthy volunteers ref 9; cited from earlier work.
The conditions of data set [12]: oral administration, after first-pass metabolism; cited from earlier work.
In data set [13] the test system is P-gp. The conditions noted are these: mdr1a (−/−) mice intestine ref 29; cited from earlier work.
[14] abbreviates: MDCK-MDR1, pH 7.4, with GG918 0.5 µM.
Setting [15] is: Caco-2, pH 7.4, with GG918 0.5 µM.
Setting [16] is: 50 µM, MDCK-MDR1, pH 7.4, GG918 0.5 µM.

Entries after “also recorded” stand apart in the source; their conditions may differ.

Consider `C[C@H]1O[C@@H](O[C@H]2[C@@H](O)C[C@H](O[C@H]3[C@@H](O)C[C@H](O[C@H]4CC[C@@]5(C)[C@H](CC[C@@H]6[C@@H]5C[C@@H](O)[C@]5(C)[C@@H](C7=CC(=O)OC7)CC[C@]65O)C4)O[C@@H]3C)O[C@@H]2C)C[C@H](O)[C@@H]1O` [Digoxin, digoxin], for which, in [1] (Digoxin 0.01 µM, MDR1-MDCK cells, +GG918 0.5 µM), the “Efflux Ratio” value stood at 1.52±0.16. Besides, the Papp A→B at 120 min, 0.01 µM is 0.26 ± 0.02 ×10⁻⁶ cm/s in data set [2] (MDCK-MDR1, pH 7.4); 0.41 ± 0.1 ×10⁻⁶ cm/s in data set [2] (setting [14]); 0.64 ± 0.03 ×10⁻⁶ cm/s in data set [4] (Caco-2, pH 7.4); 1.17 ± 0.07 ×10⁻⁶ cm/s in data set [4] (setting [15]). Also, the Papp B→A at 120 min, 0.01 µM in data set [2] (MDCK-MDR1, pH 7.4) came out at 2 ± 0.01 ×10⁻⁶ cm/s; in data set [2] (setting [14]) it was 0.67 ± 0.06 ×10⁻⁶ cm/s; in data set [4] (Caco-2, pH 7.4) it was 1.64 ± 0.13 ×10⁻⁶ cm/s; in data set [4] (setting [15]), 1.19 ± 0.05 ×10⁻⁶ cm/s. For the same compound, the efflux ratio at 120 min, 0.01 µM in data set [2] (MDCK-MDR1, pH 7.4, with GG918 0.5 µM, Efflux Ratio, Digoxin 0.01 µM, MDR1-MDCK cells, +GG918 0.5 µM) is less than 2; in data set [4] (Caco-2, pH 7.4), 2.57 ± 0.33; in [4] (setting [15]) it was less than 2. Also, the “effect of apical pH on permeability” value in data set [3] (5 µM digoxin) was “no statistical differences; also recorded: did not show different permeability results”.
As to `CC(C)NC[C@@H](O)COc1cccc2ccccc12` [R-propranolol], the hemodynamic effects result in data set [5] is given as “ineffective”.
For `CC(C)NCC(O)COc1cccc2ccccc12` (centres unmarked) [S-propranolol], in [1] (25 nM, MDCK-MDR1, pH 7.4 on both sides), the “effect of GG918 on basolateral and apical permeabilities” value is listed as “no effect of GG918 was observed”. Moreover, in [1] (50 µM, MDCK-MDR1, apical pH 6.5), the “Papp, A->B in the presence of GG918” value was “decreased significantly”. Moreover, in data set [1] (setting [16]), the “Papp, A→B in the absence or presence of GG918” value is “unexplained significant difference” and the “basolateral to apical efflux in the absence or presence of GG918” value is on record as “no significant differences”. The “effect of verapamil on Papp in the absorptive direction” value in [6] (not told) was “did not alter”. For the same compound, in [6] (pH 6.5), the “change of Papp mucosal to serosal (absorption) with mucosal pH” value is given as “statistically significant decrease” and the “effect of mucosal pH on serosal to mucosal permeability (secretion)” value is recorded as “didn’t significantly affect”. The “beta-blocking activity, times more potent than R-propranolol” value in [7] is recorded as 100 times. Further, the mass retention in data set [3] (25 nM) turned out to be 58±4%. In data set [3] (50 µM), the mass retention is on record as 12%±1. In addition, in [3] (50 µM each, pH 7.4 both sides), the “permeability compared with high permeability standard labetalol” value is “higher permeability than 50 µM labetalol”. Also, the “simulated efflux ratio (Papp, B->A/ Papp, A->B)” value in data set [3] (50 µM, apical pH 6.5, basolateral pH 7.4) is given as 3.39. The “simulated efflux ratio (Papp, B->A/ Papp, A->B)” value in data set [3] (50 µM, apical pH 7.4, basolateral pH 7.4) is 1. The “Papp, A->B” value in data set [3] (50 µM, pH 6.5→pH 7.4) is 8.1±0.3 × 10^−6 cm/sec. Also, the “simulated Papp, B->A” value in data set [3] (50 µM, pH 7.4→pH 6.5) was 27.3±0.4 × 10^−6 cm/sec. In addition, the Papp in [3] (50 µM, pH 7.4→pH 7.4) is reported as 19.2±2.6 × 10^−6 cm/sec. Moreover, in data set [3] (100 µM), the mass retention is on record as 8%±1 and the “pH dependent transcellular permeability at 100 µM compared with 50 µM” value is “almost identical to that observed at 50 µM”. In [8] (Caco-2), the “change of Papp, A->B as apical pH changed from 7.4 to 6.5” value is recorded as “markedly decreased” and the “change of Papp, B->A as apical pH changed from 7.4 to 6.5” value is recorded as “significantly increased”. Besides, in [8] (Caco-2, apical pH 6.5), the “Papp, A->B in the presence of GG918” value was “small but significant increase” and the “basolateral to apical efflux in the presence or absence of GG918” value is on record as “no significant differences”.
On to `O=S1(=O)OC(c2ccc(O)cc2)(c2ccc(O)cc2)c2ccccc21` [phenol red], for which the “permeated from the mucosal to serosal side” value in data set [9] is reported as “less than 1%”.
On to `CC(C)NCC(O)COc1cccc2ccccc12.Cl` (centres unmarked) [propranolol HCl], for which the dose number in data set [10] is listed as 0.006.
For `CC(C)NCC(O)COc1cccc2ccccc12` (centres unmarked) [propranolol], the effective permeability in data set [11] is 280 ×10⁻⁶ cm/s. Besides, the “dose reaching the systemic circulation unchanged” value in data set [12] is listed as 25%. Further, in data set [13], the “permeability, P-gp expressed vs knocked out” value is “not influenced”.

For orientation: Papp A→B means how fast a substance crosses the layer from the apical side. Lower therefore signals slow passage. What is called Papp B→A is how fast a substance crosses the layer from the basolateral side. For orientation: efflux ratio means a quotient of directional permeabilities that is used to spot active efflux.

(Values after PMC4891189 (Pharmaceutical research, 2015).)
